Laboratory results taken from patent US6479530B2, “Imidazole derivatives having affinity for α2 receptors” (Orion Corporation, priority 1995, dated 2002).

Assays:
α2-adrenoceptors [1] = target: T1, α2-adrenoceptors; assay: Binding assay, displacement of 1 nM 3H-RX821002 in rat neocortical membranes; settings: rat neocortical membranes, 1 nM 3H-RX821002, 30 min at 25° C., at least three independent experiments
T1 construct: pKi α2; other: rat neocortical membranes, 1 nM 3H-RX821002, 30 min at 25° C., at least three independent experiments
Description: (§1) Affinities for α2-adrenoceptors and α1-adrenoceptors were estimated by determining the displacement of 1 nM ^3H-RX821002 (α2) or 0.1 nM ^3H-prazosin (α1) from α-adrenoceptors in rat neocortical membranes. For this purpose membranes were incubated with different concentrations of test compounds spanning a concentration range of five orders of magnitude. Nonspecific binding was defined with 10 μM phentolamine. Membranes were used at a protein concentration of 2 mg/ml in a total volume of 250 μl. The incubation buffer consisted of 50 mM TRIS-HCl, pH 7.7. After a 30 min incubation at 25° C. samples were filtered through glass fibre filter and filters were washed three times with 4 ml icecold wash buffer consisting of 10 mM TRIS-HCl, pH 7.7. Filters were then dried, impregnated with a scintillation cocktail and counted in a scintillation counter. Experimental data was analyzed using the commercial nonlinear least squares computer program LIGAND.
(§2) Each compound was tested in at least three independent experiments for its affinity on rat neocortical α2- or α1-adrenoceptors.

α2-adrenoceptors [2] = assay: as above; settings: ratio of affinities on rat neocortical α2- vs α1-adrenoceptors
Description: as §1, §2

α1-adrenoceptors = assay: Binding assay, displacement of 0.1 nM 3H-prazosin in rat neocortical membranes; settings: 30 min at 25° C., at least three independent experiments
Description: as §1, §2

## Cc1cccc2c1CCC2c1c[nH]cn1.Cl (stereo not drawn) [Compound 1, 4-(4-Methylindan-1-yl)-1H-imidazole hydrochloride]
α2-adrenoceptors [1]
  pKi α2: 8.44
α2-adrenoceptors [2]
  alpha2 vs alpha1 selectivity: 14
α1-adrenoceptors
  pKi α1: 7.31

## Cl.Oc1ccc2c(c1)C(Cc1c[nH]cn1)CC2 (stereo not drawn) [Compound 2, 3-(1H-Imidazol-4-ylmethyl)-indan-5-ol hydrochloride]
α2-adrenoceptors [1]
  pKi α2: 8.70
α2-adrenoceptors [2]
  alpha2 vs alpha1 selectivity: 126
α1-adrenoceptors
  pKi α1: 6.61

## CC(c1c[nH]cn1)C1CCc2ccccc21.Cl (stereo not drawn) [Compound 3, 4-[1-(Indan-1-yl)-ethyl]-1H-imidazole hydrochloride]
α2-adrenoceptors [1]
  pKi α2: 8.35
α2-adrenoceptors [2]
  alpha2 vs alpha1 selectivity: 142
α1-adrenoceptors
  pKi α1: 6.21

## Cl.Oc1ccc2c(c1)C(Cc1c[nH]cn1)CCC2 (stereo not drawn) [Compound 4, 8-(1H-Imidazol-4-ylmethyl)-5,6,7,8-tetrahydronaphthalen-2-ol hydrochloride]
α2-adrenoceptors [1]
  pKi α2: 7.39
α2-adrenoceptors [2]
  alpha2 vs alpha1 selectivity: 3
α1-adrenoceptors
  pKi α1: 6.85

## Cc1cccc([C@H](C)c2cnc[nH]2)c1C [Compound 5, dexmedetomidine, reference compound]
α2-adrenoceptors [1]
  pKi α2: 8.42
α2-adrenoceptors [2]
  alpha2 vs alpha1 selectivity: 90
α1-adrenoceptors
  pKi α1: 6.48
